In patent US9463214B2, “Antibiotic peptide derived from helicobacter pylori ribosomal protein L1 and uses thereof” (INDUSTRY-ACADEMIC COOPERATION FOUNDATION, CHOSUN UNIVERSITY, priority 2013, dated 2016):
Where “and” joins values, the source holds several entries; their conditions need not be identical. Equal values may be shown once. Read-outs that look alike come from different tables or passages of the source. Ends that are not written are not given here.

Experiments:
E. coli cells = assay: SYTOX-Green fluorescence intensity in E. coli; format: cell-based; details: E. coli 2×10^7 cells/ml, 1 μM SYTOX-Green, over time and peptide concentration
Procedure: The SYTOX-Green fluorescence and luminous intensity of the peptide prepared in Example 1 were measured over the time.
Particularly, E. coli cells were cultured in LB medium at 37° C. The cells were diluted in 10 mM sodium phosphate buffer at the density of 2×10^7 cells/ml. 1 μM of SYTOX-Green was treated to the cells, followed by reaction in a dark incubator for 15˜20 minutes. The comparative peptides (HPA3P(A) and Buporin-2(C)), and the experimental peptide HPA3P2(B) were treated at the minimum inhibition concentration. The increasing fluorescence intensity emitted from SYTOX-Green was measured (excitation wavelength: 484 nm, emission wavelength: 520 nm).

E-coli CCARM 1229 = assay: microbe, parasite or virus in culture; format: cell-based, Escherichia coli; details: E-coli CCARM 1229, antibiotic-resistant
Description: (§1) To investigate the antibacterial activity of the HPA3P2 peptide prepared by the method of Example 1, the inventors first measured the minimal inhibitory concentration (MIC) that is the minimum concentration of the peptide for the strain to remain as not-decomposed.
(§2) Particularly, to measure the antibacterial activity, the standard strains were obtained. For example, Gram-negative bacteria such as E. coli (KCTC 1682) and Pseudomonas aeruginosa (KCTC 1637), and Gram-positive bacteria such as Staphylococcus aureus (KCTC […]) and Bacillus subtilis (KCTC 1918) were provided from Gene Bank, Korea Research Institute of Bioscience & Biotechnology. In addition, a variety of the antibiotic-resistant strains such as Staphylococcus aureus (CCARM 3090, 3018, 3114, 3126) and E. coli (CCARM 1229, 1238) were distributed from the culture collection at Ewha Womans University. And Pseudomonas aeruginosa (1034, 3904, 4007, 4891) were obtained from the otitis media patients at Chonnam National University Hospital. Each strain was cultured in LB medium (1% bacto-trypton, 0.5% bacto-yeast extract, 1% NaCl; Sigma, USA) until the strain grew to mid-log phase. The strain was diluted with 1% bacto-peptone medium (Difco, USA) at the density of 5×10^5 cells/100 μl, which was then inoculated in micro-titrate plate (Nunc, USA). The peptide synthesized in Example 1 and the peptides in Table 1 were added to the plate (1/2 dilution from 96 well), followed by culture at 37° C. for 6 hours. OD620 was measured by using micro-titrate plate reader (Merck Elisa reader, Germany) to determine the MIC value of each strain.

E. coli CCARM 1238 = assay: microbe, parasite or virus in culture; format: cell-based, Escherichia coli; details: E. coli CCARM 1238, antibiotic-resistant
Description: as §1, §2

P. aeruginosa 1034 = assay: microbe, parasite or virus in culture; format: cell-based, Pseudomonas aeruginosa; details: P. aeruginosa 1034, antibiotic-resistant, from otitis media patients
Description: as §1, §2

P. aeruginosa 3904 = assay: microbe, parasite or virus in culture; format: cell-based, Pseudomonas aeruginosa; details: P. aeruginosa 3904, antibiotic-resistant, from otitis media patients
Description: as §1, §2

P. aeruginosa 4007 = assay: microbe, parasite or virus in culture; format: cell-based, Pseudomonas aeruginosa; details: P. aeruginosa 4007, antibiotic-resistant, from otitis media patients
Description: as §1, §2

P. aeruginosa 4891 = assay: microbe, parasite or virus in culture; format: cell-based, Pseudomonas aeruginosa; details: P. aeruginosa 4891, antibiotic-resistant, from otitis media patients
Description: as §1, §2

S. aureus CCARM 3018 = assay: microbe, parasite or virus in culture; format: cell-based, Staphylococcus aureus; details: S. aureus CCARM 3018, antibiotic-resistant
Description: as §1, §2

S. aureus CCARM 3090 = assay: microbe, parasite or virus in culture; format: cell-based, Staphylococcus aureus; details: S. aureus CCARM 3090, antibiotic-resistant
Description: as §1, §2

S. aureus CCARM 3114 = assay: microbe, parasite or virus in culture; format: cell-based, Staphylococcus aureus; details: S. aureus CCARM 3114, antibiotic-resistant
Description: as §1, §2

S. aureus CCARM 3126 = assay: microbe, parasite or virus in culture; format: cell-based, Staphylococcus aureus; details: S. aureus CCARM 3126, antibiotic-resistant
Description: as §1, §2

[1] = test system: Bacillus subtilis (KCTC 1918); format: cell-based; details: 37° C., 6 hours, OD620
Description: as §1, §2

E. coli (KCTC 1682) = format: cell-based; details: Escherichia coli KCTC 1682; 37° C., 6 hours, OD620
Description: as §1, §2

[2] = test system: Pseudomonas aeruginosa (KCTC 1637); format: cell-based; details: 37° C., 6 hours, OD620
Description: as §1, §2

[3] = test system: Staphylococcus aureus (KCTC 1637); format: cell-based; details: 37° C., 6 hours, OD620
Description: as §1, §2

human erythrocytes = assay: Hemolytic activity; format: cell-based; details: for HC10 / HC50: human erythrocytes 8% in PBS, 37° C., 1 hour; for HC10: first value of HC10/HC50 cell; for HC50: second value of HC10/HC50 cell; for hemolytic activity: human erythrocytes, up to 800 μM peptide
Procedure: To investigate whether or not the peptide HPA3P2 that has the folding structure as prepared in Example 1 had cytotoxicity, the hemolytic activity of the peptide having the folding structure was measured.
Particularly, human erythrocytes were diluted in PBS (pH 7.0) at the concentration of 8%, to which the peptides represented by SEQ. ID. […] Then, centrifugation was performed at 1,000 g. Hemoglobin included in the supernatant was measured by measuring OD414. To compare and measure the level of cell destruction, 1% triton X-100 (Sigma, USA) was added to the human erythrocytes, and then OD of the supernatant was measured. The cell destruction capacity of the said 1% triton X-100 was considered as 100%, based on which the erythrocyte destruction capacity of each peptide including the peptide of the invention and the peptides listed in Table 1 was calculated by the below mathematical formula 1. % hemolysis=(ODA−ODB/ODC−ODB)×100 [Mathematical Formula 1] In the above mathematical formula 1, ODA is the OD of the peptide solution measured at 414 nm, and ODB is the OD of PBS measured at 414 nm, and ODC is the OD of 1% triton X-100 measured at 414 nm.

[4] = Cytotoxicity in normal cell line (MTT); format: cell-based, human; details: human, HaCaT cells (human keratinocyte cell line), read-out: EC50 (50% cytotoxicity inhibition concentration)
Procedure: (§3) To investigate whether or not the peptides prepared in Example 1 had cytotoxicity in normal cell line, the inventors investigated cytotoxicity in the human keratinocyte HaCaT cell line (Dr. N E. Fusenig, Heidelberg, Germany).
(§4) Particularly, human keratinocyte HaCaT cells were cultured in DMEM (Dulbecco's Modified Eagle's Medium) supplemented with 10% FBS (Fetal Bovine Serum), which were then distributed in a 96-well plate at the density of 2×10^4 cells/well, followed by further culture for 24 hours. The peptides prepared in Example 1 were treated at different concentrations, followed by reaction in a 5% CO2 incubator for 24 hours. Upon completion of the culture, 20 μl of phosphate buffered saline (PBS) wherein MTT (Thiazolyl Blue Tetrazolium Bromide) was dissolved at the concentration of 5 mg/ml was added to each well, followed by culture for 4 hours. The supernatant was discarded. Then, the generated MTT crystal was dissolved in 200 μl of DMSO. OD560 was measured.

[5] = test system: human keratinocyte HaCaT cell line; assay: Cytotoxicity in normal cell line (MTT); format: cell-based; details: HaCaT cells, 24 hours
Procedure: as §3, §4

| Compound | MIC Bs [1] | MIC Ec (E. coli (KCTC 1682)) | MIC Pa [2] | MIC Sa [3] | MIC (S. aureus CCARM 3018) | MIC (S. aureus CCARM 3090) | MIC (S. aureus CCARM 3114) | MIC (S. aureus CCARM 3126) | MIC (E-coli CCARM 1229) | MIC (E. coli CCARM 1238) | MIC (P. aeruginosa 1034) | MIC (P. aeruginosa 3904) | MIC (P. aeruginosa 4007) | MIC (P. aeruginosa 4891) | HC10 (human erythrocytes) | HC50 (human erythrocytes) | hemolytic activity (human erythrocytes) | EC10 (10% cytotoxicity inhibition concentration) [5] | other results |
| --- | --- | --- | --- | --- | --- | --- | --- | --- | --- | --- | --- | --- | --- | --- | --- | --- | --- | --- | --- |
| buforin-2 |  |  |  |  |  |  |  |  |  |  |  |  |  |  |  |  |  |  | change of SYTOX-Green fluorescence intensity (E. coli cells): the fluorescence intensity is changed |
| CC1(C)S[C@@H]2[C@H](NC(=O)[C@H](N)c3ccccc3)C(=O)N2[C@H]1C(=O)O [Ampicillin] |  |  |  |  |  |  |  |  |  |  |  |  |  |  |  |  |  |  | MIC (E-coli CCARM 1229; Escherichia coli, CCARM1229, read-out: MIC): > 800 µM; MIC (E. coli CCARM 1238; Escherichia coli, CCARM1238, read-out: MIC): > 800 µM |
| CCN1CCN(C(=O)N[C@@H](C(=O)N[C@@H]2C(=O)N3[C@@H]2SC(C)(C)[C@@H]3C(=O)O)c2ccccc2)C(=O)C1=O [Piperacillin] |  |  |  |  |  |  |  |  |  |  |  |  |  |  |  |  |  |  | MIC (P. aeruginosa 1034; Pseudomonas aeruginosa): > 400 µM; MIC (P. aeruginosa 3904; Pseudomonas aeruginosa): > 400 µM; MIC (P. aeruginosa 4007; Pseudomonas aeruginosa): > 400 µM; MIC (P. aeruginosa 4891; Pseudomonas aeruginosa): > 400 µM |
| CC[C@H]1OC(=O)[C@H](C)[C@@H](O[C@H]2C[C@@](C)(OC)[C@@H](O)[C@H](C)O2)[C@H](C)[C@@H](O[C@@H]2O[C@H](C)C[C@H](N(C)C)[C@H]2O)[C@](C)(O)C[C@@H](C)C(=O)[C@H](C)[C@@H](O)[C@]1(C)O [Erythromycin] |  |  |  |  |  |  |  |  |  |  |  |  |  |  |  |  |  |  | MIC (S. aureus CCARM 3018; Staphylococcus aureus, CCARM3018): > 800 µM; MIC (S. aureus CCARM 3090; Staphylococcus aureus, CCARM3090): > 800 µM; MIC (S. aureus CCARM 3114; Staphylococcus aureus, CCARM3114): > 800 µM; MIC (S. aureus CCARM 3126; Staphylococcus aureus, CCARM3126): > 800 µM |
| AKKVFKRLPKLFSKIWNWK-NH2 [HPA3P, AKKVFKRLPKLFSKIWNWK-NH2] | 2 µM | 1 µM | 8 µM | 16 µM | 1 µM | 1 µM | 1 µM | 1 µM | 0.5 to 1 µM | 0.5 to 1 µM | 1 µM | 1 µM | 1 µM | 1 µM | >800/>800 μM | >800/>800 μM | not observed | 151.1 µM and 151.5 µM | EC50 at 24 h [4]: 381 µM |
| AKKVFKRLPKLPSKIWNWK-NH2 [HPA3P2, AKKVFKRLPKLPSKIWNWK-NH2] | >64 µM | 16 µM | 16 µM | >64 µM | 1 µM | 1 µM | 1 µM | 1 µM | 0.5 to 1 µM | 0.5 to 1 µM | 1 µM | 1 µM | 1 µM | 1 µM | >800/>800 μM | >800/>800 μM | not observed | 180.5 µM |  |
